Results published in EP4741383A1, “COMPOUND AND USE THEREOF AS ANTI-CANCER DRUG” (Tyligand Bioscience (Shanghai) Limited, priority 2023, dated 2025).

Tests used:
Format in all cases: biochemical
CD45 = biological target: T1, CD45 (Homo sapiens, UniProt P08575); assay: Tyrosine phosphatase selectivity (pNPP substrate), CD45; conditions: for IC50: CD45, pNPP substrate; for IC50PTP/IC50SHP2 CD45: selectivity ratio CD45 over SHP2
T1 construct: made in house; host or cells: E. coli
T1 sequence (P08575 26-1306): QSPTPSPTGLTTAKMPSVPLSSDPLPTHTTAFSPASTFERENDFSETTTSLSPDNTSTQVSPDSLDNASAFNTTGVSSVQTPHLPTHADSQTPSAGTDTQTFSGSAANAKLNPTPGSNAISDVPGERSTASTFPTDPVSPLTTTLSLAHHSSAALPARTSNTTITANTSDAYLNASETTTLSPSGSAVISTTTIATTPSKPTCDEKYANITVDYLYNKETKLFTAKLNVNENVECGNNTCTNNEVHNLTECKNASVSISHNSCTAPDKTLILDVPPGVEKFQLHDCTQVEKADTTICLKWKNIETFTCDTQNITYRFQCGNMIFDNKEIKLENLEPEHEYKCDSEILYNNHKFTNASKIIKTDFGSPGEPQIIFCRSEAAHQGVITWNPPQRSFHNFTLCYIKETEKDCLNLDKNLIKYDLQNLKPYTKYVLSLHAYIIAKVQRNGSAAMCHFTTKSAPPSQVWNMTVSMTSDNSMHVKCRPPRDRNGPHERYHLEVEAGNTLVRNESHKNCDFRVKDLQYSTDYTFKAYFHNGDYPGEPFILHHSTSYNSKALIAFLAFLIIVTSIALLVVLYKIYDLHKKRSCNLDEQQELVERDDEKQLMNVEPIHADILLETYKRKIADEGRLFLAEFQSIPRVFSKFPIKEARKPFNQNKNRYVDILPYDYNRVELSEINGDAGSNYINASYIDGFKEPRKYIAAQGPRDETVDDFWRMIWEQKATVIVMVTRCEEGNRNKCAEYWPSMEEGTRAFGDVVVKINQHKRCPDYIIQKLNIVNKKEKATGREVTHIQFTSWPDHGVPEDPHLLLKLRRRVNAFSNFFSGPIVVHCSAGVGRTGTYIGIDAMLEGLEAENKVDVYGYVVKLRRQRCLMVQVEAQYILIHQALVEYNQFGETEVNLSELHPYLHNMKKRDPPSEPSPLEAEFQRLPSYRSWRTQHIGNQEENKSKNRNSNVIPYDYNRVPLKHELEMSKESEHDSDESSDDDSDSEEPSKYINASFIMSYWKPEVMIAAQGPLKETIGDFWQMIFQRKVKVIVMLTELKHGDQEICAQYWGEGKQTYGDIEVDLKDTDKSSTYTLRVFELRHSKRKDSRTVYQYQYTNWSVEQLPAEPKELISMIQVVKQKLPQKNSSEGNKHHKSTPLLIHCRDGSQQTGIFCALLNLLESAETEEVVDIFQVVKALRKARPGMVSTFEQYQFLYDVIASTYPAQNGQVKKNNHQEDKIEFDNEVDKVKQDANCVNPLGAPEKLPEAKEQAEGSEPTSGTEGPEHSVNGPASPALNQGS
Experimental: (§1) This experiment evaluated the selectivity of the disclosed compounds against tyrosine phosphatases, including SHP1, HePTP, Laforin, LMWPTP, LYP, PTP1B, PRL2, SSU72, VHR, FAP1, STEP, CDC14A, CD45, MEG2, and PP5, all expressed and purified from E. coli.
(§2) Phosphatase activity was measured using p-nitrophenyl phosphate (pNPP) (Fisher Scientific) as the substrate in 50 mM 3,3-dimethylglutaric acid buffer (pH 7.0, containing 1 mM EDTA), with ionic strength adjusted to 0.15 M with NaCl. […] After 10-60 minutes, the reaction was quenched by adding 20 µL of 5 N NaOH. Wells without enzyme were used as controls for correction. The amount of the product, p-nitrophenol, was determined by measuring the absorbance at 405 nm using a Spectra MAX340 microplate spectrophotometer (Molecular Devices), with a molar extinction coefficient of 18000 M^-1cm^-1.
(§3) Data were analyzed using GraphPad Prism software. Dose-response curves were obtained by fitting data using the nonlinear S-curve regression Dose-response-inhibition equation, and IC50 values were calculated.

PP5 = biological target: T2, PP5 (Homo sapiens, UniProt P53041); assay: Tyrosine phosphatase selectivity (pNPP substrate), PP5; conditions: for IC50: PP5, pNPP substrate; for IC50PTP/IC50SHP2 PP5: selectivity ratio PP5 over SHP2
T2 construct: made in house; host or cells: E. coli
T2 sequence (P53041 1-499): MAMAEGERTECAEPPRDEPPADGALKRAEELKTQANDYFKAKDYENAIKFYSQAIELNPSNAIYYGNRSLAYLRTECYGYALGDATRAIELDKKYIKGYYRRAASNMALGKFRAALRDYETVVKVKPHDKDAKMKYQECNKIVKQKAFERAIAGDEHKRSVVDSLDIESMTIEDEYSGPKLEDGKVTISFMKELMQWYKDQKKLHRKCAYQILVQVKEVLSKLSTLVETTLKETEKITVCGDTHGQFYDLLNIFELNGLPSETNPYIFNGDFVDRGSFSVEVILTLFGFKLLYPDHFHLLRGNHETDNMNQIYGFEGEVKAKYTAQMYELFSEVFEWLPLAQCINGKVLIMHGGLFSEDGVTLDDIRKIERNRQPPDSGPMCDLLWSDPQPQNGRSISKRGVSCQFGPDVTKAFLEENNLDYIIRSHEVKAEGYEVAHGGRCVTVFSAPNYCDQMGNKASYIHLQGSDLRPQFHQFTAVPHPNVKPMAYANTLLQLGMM
Experimental: as §1, §2, §3

PRL2 = biological target: T3, PRL2 (Homo sapiens, UniProt Q12974); assay: Tyrosine phosphatase selectivity (pNPP substrate), PRL2; conditions: for IC50: PRL2, pNPP substrate; for IC50PTP/IC50SHP2 PRL2: selectivity ratio PRL2 over SHP2
T3 construct: made in house; host or cells: E. coli
T3 sequence (Q12974 1-167): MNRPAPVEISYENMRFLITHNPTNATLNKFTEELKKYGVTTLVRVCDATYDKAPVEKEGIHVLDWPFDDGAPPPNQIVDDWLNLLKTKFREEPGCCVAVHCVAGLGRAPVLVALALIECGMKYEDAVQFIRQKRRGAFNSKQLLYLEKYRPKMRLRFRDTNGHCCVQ
Experimental: as §1, §2, §3

SSU72 = biological target: T4, SSU72 (Homo sapiens, UniProt Q9NP77); assay: Tyrosine phosphatase selectivity (pNPP substrate), SSU72; conditions: for IC50: SSU72, pNPP substrate; for IC50PTP/IC50SHP2 SSU72: selectivity ratio SSU72 over SHP2
T4 construct: made in house; host or cells: E. coli
T4 sequence (Q9NP77 1-194): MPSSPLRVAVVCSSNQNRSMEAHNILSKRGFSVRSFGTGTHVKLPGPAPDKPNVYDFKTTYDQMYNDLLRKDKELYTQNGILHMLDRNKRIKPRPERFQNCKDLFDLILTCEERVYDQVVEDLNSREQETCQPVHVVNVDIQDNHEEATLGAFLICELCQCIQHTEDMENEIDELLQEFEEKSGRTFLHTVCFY
Experimental: as §1, §2, §3

Structure (SMILES)	IC50 (CD45)	IC50PTP/IC50SHP2 CD45 (CD45)	IC50 (PP5)	IC50PTP/IC50SHP2 PP5 (PP5)	IC50 (PRL2)	IC50PTP/IC50SHP2 PRL2 (PRL2)	IC50 (SSU72)	IC50PTP/IC50SHP2 SSU72 (SSU72)
O=C(Nc1ccc(-c2ccsc2)cc1)C(=O)Nc1ccc(-c2cc3cc(F)c(-c4nnn[nH]4)cc3n2C2CCC2)cc1 [Example 4]	> 50 µM	1724.1	> 50 µM	1724.1	> 50 µM	1724.1	< 3000 nM	103.4
CC1(n2c(-c3ccc(NC(=O)C(=O)Nc4ccc(N5CCC6(CCOC6)CC5)cc4)cc3)cc3cc(F)c(-c4nnn[nH]4)cc32)CCC1 [Example 68]	3.48 µM	72.5	> 25 µM	520.8	> 25 µM	520.8	–	–
O=C(Nc1ccc(-c2cc3cc(F)c(-c4nnn[nH]4)cc3n2C2CCC2)cc1)C(=O)Nc1ccc(N2CCOCC2)cc1 [Example 47]	1.06 µM	16.8	> 100 µM	1587	> 100 µM	1587	90 nM	1.4
O=C(Nc1ccc(-c2ccsc2)cc1)C(=O)Nc1ccc(-c2cc3cc(F)c(-c4nnn[nH]4)nc3n2C2CCC2)cc1 [Example 132]	23.7 µM	877.8	> 50 µM	1851.9	> 50 µM	1851.9	< 3000 nM	111.1
Cn1cc(-c2ccc(NC(=O)C(=O)Nc3ccc(-c4cc5cc(F)c(-c6noc(=O)[nH]6)cc5n4C4CCC4)cc3)cc2)cn1 [Example 123]	4.27 µM	30.3	> 100 µM	709.2	> 100 µM	709.2	> 100000 nM	709.2
O=C(Nc1ccc(-c2cc3cc(F)c(-c4nnn[nH]4)cc3n2C2CCC2)cc1)C(=O)Nc1ccc(N2CCC3(CCOC3)CC2)cc1 [Example 67]	2.62 µM	77.0	> 100 µM	2941	> 100 µM	2941	16 nM	0.47
O=C(Nc1ccc(-c2ccsc2)cc1)C(=O)Nc1ccc(-c2cc3cnc(-c4nnn[nH]4)nc3n2C2CCC2)cc1 [Example 131]	25.2 µM	969.2	> 50 µM	1923.1	> 50 µM	1923.1	< 3000 nM	115.4
O=C(Nc1ccc(-c2ccsc2)cc1)C(=O)Nc1ccc(-c2oc3cc(F)c(-c4nnn[nH]4)cc3c2C2CCC2)cc1 [Example 130]	> 50 µM	2000	> 50 µM	2000	> 50 µM	2000	< 3000 nM	120
O=C(Nc1ccc(-c2oc3cc(F)c(-c4nnn[nH]4)cc3c2C2CCC2)cc1)C(=O)Nc1ccc(N2CCC3(CCOC3)CC2)cc1 [Example 125]	16.1 µM	315.7	> 100 µM	1960.8	> 100 µM	1960.8	> 100000 nM	1960.8
Cn1c(-c2cccc(NC(=O)C(=O)Nc3ccc(-c4ccsc4)cc3)c2)c(I)c2cc(C(=O)O)c(O)cc21 [Example 11a-1, reference compound]	–	–	–	–	–	–	1300 nM	12.0
Cn1cc(-c2ccc(NC(=O)C(=O)Nc3ccc(-c4cc5cc(F)c(-c6nnc(C(F)(F)F)[nH]6)cc5n4C4CCC4)cc3)cc2)cn1 [Example 124]	> 100 µM	139.7	> 100 µM	139.7	> 100 µM	139.7	> 100000 nM	139.7
O=C(Nc1ccc(-c2cc3cc(F)c(-c4nnn[nH]4)cc3n2C2CCC2)cc1)C(=O)Nc1ccc(N2CC3COCC3C2)cc1 (stereo not shown) [Example 114]	1.81 µM	25.1	> 100 µM	1388	> 100 µM	1388	90 nM	1.2
